Reference: patent US4976950A, “Bone marrow suppressing agents” (The Dow Chemical Company, priority 1989, dated 1990)
“And” between values parts separate entries of the source, which are not always exact repeats. Equal values may be shown once.

What was measured:
[1] = Biodistribution: % of injected dose in tissue 2 hours after tail vein injection (NaI scintillation counting); assay type: in vivo, Sprague Dawley rats; details: rat i.v.
Experimental: (§1) The rats weighed between 150 and 200 g at the time of injection. After 2 hours the rats were killed by cervical dislocation and dissected. The amount of radioactivity in each tissue was determined by counting in a NaI scintillation counter coupled to a multichannel analyzer. The counts were compared to the counts in 100 μL standards in order to determine the percentage of the dose in each tissue or organ.
as §1, with “to determined” for “to determine”, “organ. The numbers represent the average of 5 rats per data point.” for “organ.”
as §1, with “Sprague Dawley rats were allowed to acclimate for five days then injected with 100 μL of the Sm solution described above via a tail vein. The rats” for “The rats”, “or organ. The numbers represent the average of 3 rats per data point.” for “or organ.”
as §1, with “Sprague Dawley rats were allowed to acclimate for five days then injected with 100 μL of the Ho solution described above via a tail vein. The rats” for “The rats”, “each tissue wa determined by” for “each tissue was determined by”, “or organ. The numbers represent the average of 3 rats per data point.” for “or organ.”
Sprague Dawley rats were allowed to acclimate for five days then injected with 100 μL of the solutions described above via a tail vein. The rats weighed between 150 and 200 g at the time of injection. After 2 hours the rats were killed by cervical dislocation. Tissues were taken, weighed and the amount of radioactivity determined by counting in a NaI scintillation counter coupled to a multichannel analyzer. The counts in each tissue were compared to the counts in 100 μL standards in order to determine the percentage of the dose in each tissue or organ.
A Sprague Dawley rat was allowed to acclimate for five days then injected with 175 μL of the solution described above via a tail vein. The rat weighed 155 g at the time of injection. After 2 hours the rat was killed by cervical dislocation and dissected. The amount of radioactivity in each tissue was determined by counting in a NaI scintillation counter coupled to a multichannel analyzer. The counts in each tissue were compared to the counts in […] standards in order to determine the percentage of the dose in each tissue or organ.

white blood cell = assay: White blood cell count after injection of radionuclide complex (Unopette Test 5856); assay type: in vivo, Sprague Dawley rats
Experimental: Six Sprague Dawley rats were allowed to acclimate for a period of 6 days then a sample of blood was taken daily from the tail vein and the white blood cell count determined by a standard manual method (Unopette Test 5856 from Becton-Dickinson and Company). On the fourth day, rats numbered 2, 4 and 6 were injected with 0.9 mCi (33.3 MBq) of the above complex. The rat weight at this time ranged from 160-180 g. On days 7, 8, and 9 the white blood cell count was again determined for each rat. Table VI gives the white blood cell count of the injected (2, 4 and 6) rats compared to the control rats (1, 3, and 5). […]

[2] = 0.9 mCi (33.3 MBq) injected Day 4, individual rats 2, 4, 6 (Day 4 counts 28950, 21300, 17600)

O=P([O-])(O)CN1CCN(CP(=O)(O)O)CCN(CP(=O)([O-])O)CCN(CP(=O)(O)O)CC1.[166Ho] [Ho-DOTMP]
% Injection dose in blood ([1]; Table IV, Blood, 0.6 mM Ho, ligand to Ho ratio approximately 1.5, average of 3 rats): 0.07% | % Injection dose in kidney ([1]; Table IV, Kidney, 0.6 mM Ho, ligand to Ho ratio approximately 1.5, average of 3 rats): 0.4% | % Injection dose in liver ([1]; Table IV, Liver, 0.6 mM Ho, ligand to Ho ratio approximately 1.5, average of 3 rats): 0.07% | % Injected dose in blood ([1]; Table V, Blood, ligand of Example 2, cation exchange purified, average of 3 rats): 0.17% | % Injected dose in bone ([1]; Table V, Bone, ligand of Example 2, cation exchange purified, average of 3 rats): 64% | % Injected dose in liver ([1]; Table V, Liver, ligand of Example 2, cation exchange purified, average of 3 rats): 0.19% | Blood count of treated animals compared to untreated animals (white blood cell; 0.9 mCi (33.3 MBq) i.v., rats, days 7, 8 and 9, injected on day 4): significant drop in the blood count | White blood cell count, Day 7 (white blood cell; [2]): 5850 and 7400 and 5400 | White blood cell count, Day 8 (white blood cell; [2]): 7950 and 7500 and 4750 | White blood cell count, Day 9 (white blood cell; [2]): 7900 and 7550 and 5350
